From US20170008888A1 (KYORIN PHARMACEUTICAL CO., LTD., priority 2014, published 2017)

Legend:
[1] = system: DNFB-induced ear inflammation mouse model; assay: DNFB-induced ear inflammation mouse model: cytokine concentrations in ear tissue; format: in vivo, mouse (Balb/c)
Experimental: In vivo T-cell mediated immune response was examined in a mouse model of CHS using the hapten dinitrofluorobenzene (DNFB) as the induction agent. […] On Days 0 and 1 (sensitization), 20 μL of 0.5% v/v DNFB in acetone:olive oil (4:1) was applied to each hindpaw of 8 week old male mice (Balb/c, Charles River Laboratories; 10 mice per group unless otherwise noted). On Day 5 (elicitation) 10 μL of 0.2% v/v DNFB in acetone: olive oil (4:1) was applied to the dorsal surface of the right ear of each animal; 10 μL of acetone: olive oil (4:1) was applied to the dorsal surface of the left ear as control. Treatments were administered by group as indicated in the table below; on days when DNFB was used, the QD and the morning dose of BID as appropriate were administered 30 minutes-1 hr. prior to DNFB application. […] Approximately 24 hours after elicitation (Day 6), a 7 mm tissue punch from the central portion of both ears was collected and wet weights measured. The primary functional assessment was the difference in wet weights of the right (DNFB) vs. left (vehicle) ears compared to the vehicle treatment (Vehicle1-S) as an indicator of inflammation (Table 17). Ear tissue punches were flash frozen, stored at −70° C. and analyzed for cytokines (see below).
Cytokine concentrations after DNFB induction and treatment were analyzed in the weighed and flash frozen tissues of the right (DNFB) and left (control) 7 mm ear punches. The ear tissues were stored at −70° C. until prepared for analysis as follows. Left or right ear tissues from the same treatment group were pooled and crushed with mortar and pestle under liquid nitrogen. Tissue representing 7-8 ear punches by weight was homogenized in Buffer A (50 mM HEPES pH 7.4, 100 mM NaCl) containing 1 tablet EDTA-free Protease Inhibitor (Thermo Fisher Scientific, Rockford, Ill.) per 10 mL, 1× Phosphatase Inhibitor Cocktail II (AG Scientific, San Diego, Calif.), and 1 mM PMSF (Sigma, St. Louis, Mo.). Homogenization was performed in Lysing Matrix D tubes (MP Biomedicals, Solon, Ohio), using the FastPrep-24 instrument (MP Biomedicals) at a speed setting of 6 for 4 cycles of 30 seconds, with cooling on ice in between cycles. The tubes were then centrifuged at 1,000×g for 10 min at 4° C. Supernatant was collected and briefly sonicated using the Microson probe sonicator at setting 3 (Misonix, Farmingdale, N.Y.) before centrifuging again at 10,000×g for 10 min at 4° C. The supernatant was ultracentrifuged at 100,000×g for 1 h at 4° C. in the Optima Max-E (Beckman Coulter, Indianapolis, Ind.) to separate soluble and membrane protein fractions. The soluble (supernatant) fraction was collected and protein concentrations determined using the Dc protein kit (Bio-Rad, Hercules, Calif.). Soluble ear proteins were analyzed in triplicate for cytokine response at a final protein concentration of 4 mg/ml using the Bio-Plex Pro Mouse Cytokine 23-Plex panel (Bio-Rad) as per manufacturer's protocols. Magnetic beads were read on the Bio-Plex MAGPIX multiplex reader instrument using the accompanying xPONENT 4.2 acquisition software (Bio-Rad Laboratories, Hercules, Calif.). Data were analyzed via the Bio-Plex Manager software v6.1 (Bio-Rad Laboratories). Response was calculated as a percentage of the cytokine concentrations measured in the right (DNFB) ears of vehicle 1 dosed (S regimen, i.e. dosed Day 0-5) mice (Table 18).

[2] = target: T1, panel of 40 bromodomain-containing proteins (Homo sapiens, UniProt Q09472); assay: Bromodomain binding assay (T7 phage, qPCR): further proteins of the panel; conditions: EP300
T1 construct: T7 phage strains displaying bromodomains were grown in parallel; made in house; host or cells: E. coli host derived from BL21, infected with T7 phage
T1 sequence (Q09472 1045-1161): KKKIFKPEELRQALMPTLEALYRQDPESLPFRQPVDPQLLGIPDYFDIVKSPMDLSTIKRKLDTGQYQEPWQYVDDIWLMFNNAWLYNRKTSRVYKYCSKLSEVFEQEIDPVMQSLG
Experimental: (§1) T7 phage strains displaying bromodomains were grown in parallel in 24-well blocks in an E. coli host derived from the BL21 strain. E. coli were grown to log-phase and infected with T7 phage from a frozen stock (multiplicity of infection=0.4) and incubated with shaking at 32° C. until lysis (90-150 minutes). The lysates were centrifuged (5,000×g) and filtered (0.2 μm) to remove cell debris. […] The liganded beads were blocked with excess biotin and washed with blocking buffer (SeaBlock (Pierce), 1% BSA, 0.05 Tween 20, 1 mM DTT) to remove unbound ligand and to reduce non-specific phage binding. […] Test compounds (T62 and 46) were prepared as 1000× stocks in 100% DMSO and subsequently diluted 1:10 in monoethylene glycol (MEG) to create stocks at 100× the screening concentration (resulting stock solution is 10% DMSO/90% MEG). The compounds were then diluted directly into the assays such that the final concentration of DMSO and MEG were 0.1% and 0.9%, respectively. All reactions were performed in polystyrene 96-well plates in a final volume of 0.135 ml. […] The bromodomain concentration in the eluates was measured by qPCR. Compounds were assayed for binding activity against a panel of 40 bromodomain-containing proteins.

[3] = target: T2, panel of 40 bromodomain-containing proteins (Homo sapiens, UniProt Q92793); assay: as above; conditions: CREBBP
T2 construct: T7 phage strains displaying bromodomains were grown in parallel; made in house; host or cells: E. coli host derived from BL21, infected with T7 phage
T2 sequence (Q92793 1081-1197): as the sequence (Q09472 1045-1161) above, with K1R, S51N, I77V, Y97F, S102A counted along it
Experimental: as §1

BRD7 = target: T3, BRD7 (Homo sapiens, UniProt Q9NPI1); assay: Bromodomain binding assay: BRD7
T3 construct: T7 phage strains displaying bromodomains were grown in parallel; made in house; host or cells: E. coli host derived from BL21, infected with T7 phage
T3 sequence (Q9NPI1 131-235 limits assumed, species assumed): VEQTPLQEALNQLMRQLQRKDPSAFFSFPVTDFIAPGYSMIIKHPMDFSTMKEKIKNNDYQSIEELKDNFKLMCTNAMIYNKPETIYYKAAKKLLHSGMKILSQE
Experimental: as §1

Structure (SMILES): CCOc1cc(C(=O)N2CCCN(C)CC2)ccc1Nc1cc2c(cn1)N(C)C(=O)c1ccccc1N2C [Compound 8]
- G-CSF: Mean % Cytokine Concentration in DNFB Treated Right Ears versus Vehicle 1-Dosed (S) Mice ([1]; 25 mg/kg, regimen E): 68%
- GM-CSF: Mean % Cytokine Concentration in DNFB Treated Right Ears versus Vehicle 1-Dosed (S) Mice ([1]; 25 mg/kg, regimen E): 40%
- IFN-γ: Mean % Cytokine Concentration in DNFB Treated Right Ears versus Vehicle 1-Dosed (S) Mice ([1]; 25 mg/kg, regimen E): 52%
- IL-1α: Mean % Cytokine Concentration in DNFB Treated Right Ears versus Vehicle 1-Dosed (S) Mice ([1]; 25 mg/kg, regimen E): 88%
- IL-1β: Mean % Cytokine Concentration in DNFB Treated Right Ears versus Vehicle 1-Dosed (S) Mice ([1]; 25 mg/kg, regimen E): 56%
- IL-3: Mean % Cytokine Concentration in DNFB Treated Right Ears versus Vehicle 1-Dosed (S) Mice ([1]; 25 mg/kg, regimen E): 67%
- IL-5: Mean % Cytokine Concentration in DNFB Treated Right Ears versus Vehicle 1-Dosed (S) Mice ([1]; 25 mg/kg, regimen E): 37%
- IL-6: Mean % Cytokine Concentration in DNFB Treated Right Ears versus Vehicle 1-Dosed (S) Mice ([1]; 25 mg/kg, regimen E): 58%
- IL-12 (p40): Mean % Cytokine Concentration in DNFB Treated Right Ears versus Vehicle 1-Dosed (S) Mice ([1]; 25 mg/kg, regimen E): 79%
- IL-13: Mean % Cytokine Concentration in DNFB Treated Right Ears versus Vehicle 1-Dosed (S) Mice ([1]; 25 mg/kg, regimen E): 74%
- IL-17A: Mean % Cytokine Concentration in DNFB Treated Right Ears versus Vehicle 1-Dosed (S) Mice ([1]; 25 mg/kg, regimen E): 69%
- KC: Mean % Cytokine Concentration in DNFB Treated Right Ears versus Vehicle 1-Dosed (S) Mice ([1]; 25 mg/kg, regimen E): 39%
- MCP-1: Mean % Cytokine Concentration in DNFB Treated Right Ears versus Vehicle 1-Dosed (S) Mice ([1]; 25 mg/kg, regimen E): 44%
- MIP-1α: Mean % Cytokine Concentration in DNFB Treated Right Ears versus Vehicle 1-Dosed (S) Mice ([1]; 25 mg/kg, regimen E): 62%
- MIP-1β: Mean % Cytokine Concentration in DNFB Treated Right Ears versus Vehicle 1-Dosed (S) Mice ([1]; 25 mg/kg, regimen E): 60%
- RANTES: Mean % Cytokine Concentration in DNFB Treated Right Ears versus Vehicle 1-Dosed (S) Mice ([1]; 25 mg/kg, regimen E): 66%
- TNF-α: Mean % Cytokine Concentration in DNFB Treated Right Ears versus Vehicle 1-Dosed (S) Mice ([1]; 25 mg/kg, regimen E): 53%
- G-CSF: Mean % Cytokine Concentration in DNFB Treated Right Ears versus Vehicle 1-Dosed (S) Mice ([1]; 60 mg/kg, regimen E): 50%
- GM-CSF: Mean % Cytokine Concentration in DNFB Treated Right Ears versus Vehicle 1-Dosed (S) Mice ([1]; 60 mg/kg, regimen E): 48%
- IFN-γ: Mean % Cytokine Concentration in DNFB Treated Right Ears versus Vehicle 1-Dosed (S) Mice ([1]; 60 mg/kg, regimen E): 58%
- IL-1α: Mean % Cytokine Concentration in DNFB Treated Right Ears versus Vehicle 1-Dosed (S) Mice ([1]; 60 mg/kg, regimen E): 188%
- IL-1β: Mean % Cytokine Concentration in DNFB Treated Right Ears versus Vehicle 1-Dosed (S) Mice ([1]; 60 mg/kg, regimen E): 62%
- IL-3: Mean % Cytokine Concentration in DNFB Treated Right Ears versus Vehicle 1-Dosed (S) Mice ([1]; 60 mg/kg, regimen E): 77%
- IL-5: Mean % Cytokine Concentration in DNFB Treated Right Ears versus Vehicle 1-Dosed (S) Mice ([1]; 60 mg/kg, regimen E): 57%
- IL-6: Mean % Cytokine Concentration in DNFB Treated Right Ears versus Vehicle 1-Dosed (S) Mice ([1]; 60 mg/kg, regimen E): 61%
- IL-12 (p40): Mean % Cytokine Concentration in DNFB Treated Right Ears versus Vehicle 1-Dosed (S) Mice ([1]; 60 mg/kg, regimen E): 88%
- IL-13: Mean % Cytokine Concentration in DNFB Treated Right Ears versus Vehicle 1-Dosed (S) Mice ([1]; 60 mg/kg, regimen E): 85%
- IL-17A: Mean % Cytokine Concentration in DNFB Treated Right Ears versus Vehicle 1-Dosed (S) Mice ([1]; 60 mg/kg, regimen E): 68%
- KC: Mean % Cytokine Concentration in DNFB Treated Right Ears versus Vehicle 1-Dosed (S) Mice ([1]; 60 mg/kg, regimen E): 29%
- MCP-1: Mean % Cytokine Concentration in DNFB Treated Right Ears versus Vehicle 1-Dosed (S) Mice ([1]; 60 mg/kg, regimen E): 47%
- MIP-1α: Mean % Cytokine Concentration in DNFB Treated Right Ears versus Vehicle 1-Dosed (S) Mice ([1]; 60 mg/kg, regimen E): 62%
- MIP-1β: Mean % Cytokine Concentration in DNFB Treated Right Ears versus Vehicle 1-Dosed (S) Mice ([1]; 60 mg/kg, regimen E): 44%
- RANTES: Mean % Cytokine Concentration in DNFB Treated Right Ears versus Vehicle 1-Dosed (S) Mice ([1]; 60 mg/kg, regimen E): 53%
- TNF-α: Mean % Cytokine Concentration in DNFB Treated Right Ears versus Vehicle 1-Dosed (S) Mice ([1]; 60 mg/kg, regimen E): 81%
- G-CSF: Mean % Cytokine Concentration in DNFB Treated Right Ears versus Vehicle 1-Dosed (S) Mice ([1]; 60 mg/kg, regimen S): 36%
- GM-CSF: Mean % Cytokine Concentration in DNFB Treated Right Ears versus Vehicle 1-Dosed (S) Mice ([1]; 60 mg/kg, regimen S): 52%
- IFN-γ: Mean % Cytokine Concentration in DNFB Treated Right Ears versus Vehicle 1-Dosed (S) Mice ([1]; 60 mg/kg, regimen S): 46%
- IL-1α: Mean % Cytokine Concentration in DNFB Treated Right Ears versus Vehicle 1-Dosed (S) Mice ([1]; 60 mg/kg, regimen S): 136%
- IL-1β: Mean % Cytokine Concentration in DNFB Treated Right Ears versus Vehicle 1-Dosed (S) Mice ([1]; 60 mg/kg, regimen S): 52%
- IL-3: Mean % Cytokine Concentration in DNFB Treated Right Ears versus Vehicle 1-Dosed (S) Mice ([1]; 60 mg/kg, regimen S): 61%
- IL-5: Mean % Cytokine Concentration in DNFB Treated Right Ears versus Vehicle 1-Dosed (S) Mice ([1]; 60 mg/kg, regimen S): 37%
- IL-6: Mean % Cytokine Concentration in DNFB Treated Right Ears versus Vehicle 1-Dosed (S) Mice ([1]; 60 mg/kg, regimen S): 32%
- IL-12 (p40): Mean % Cytokine Concentration in DNFB Treated Right Ears versus Vehicle 1-Dosed (S) Mice ([1]; 60 mg/kg, regimen S): 73%
- IL-13: Mean % Cytokine Concentration in DNFB Treated Right Ears versus Vehicle 1-Dosed (S) Mice ([1]; 60 mg/kg, regimen S): 75%
- IL-17A: Mean % Cytokine Concentration in DNFB Treated Right Ears versus Vehicle 1-Dosed (S) Mice ([1]; 60 mg/kg, regimen S): 38%
- KC: Mean % Cytokine Concentration in DNFB Treated Right Ears versus Vehicle 1-Dosed (S) Mice ([1]; 60 mg/kg, regimen S): 35%
- MCP-1: Mean % Cytokine Concentration in DNFB Treated Right Ears versus Vehicle 1-Dosed (S) Mice ([1]; 60 mg/kg, regimen S): 43%
- MIP-1α: Mean % Cytokine Concentration in DNFB Treated Right Ears versus Vehicle 1-Dosed (S) Mice ([1]; 60 mg/kg, regimen S): 57%
- MIP-1β: Mean % Cytokine Concentration in DNFB Treated Right Ears versus Vehicle 1-Dosed (S) Mice ([1]; 60 mg/kg, regimen S): 52%
- RANTES: Mean % Cytokine Concentration in DNFB Treated Right Ears versus Vehicle 1-Dosed (S) Mice ([1]; 60 mg/kg, regimen S): 51%
- TNF-α: Mean % Cytokine Concentration in DNFB Treated Right Ears versus Vehicle 1-Dosed (S) Mice ([1]; 60 mg/kg, regimen S): 65%

Structure (SMILES): CCOc1cc(C(=O)N[C@H]2CC[C@H](O)CC2)ccc1Nc1cc2c(cn1)N(C)C(=O)c1ccccc1N2C [Compound T62]
- Kd [2]: 1100 nM
- Kd [3]: 1200 nM
- Kd (BRD7): > 20000 nM
